For this test, the target named is T1, KRAS G12D/RAF1 (Homo sapiens, UniProt P01116, G12D).
T1 construct: His6-MBP (N, cleaved yes); made in house; host or cells: E. coli
Description: Protein-protein interaction (PPI) HTRF assay KRAS G12D/RAF1. The class given is binding. The procedure, abridged: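 Biotinylated human KRAS (1-169; wt, G12D, G12V) or wt NRAS, GppNHp-loaded, pre-incubated 30 min RT with compound and streptavidin-d2, then His-RAF1 RBD (52-131) with anti-6His Tb cryptate added for 1 h RT. HTRF 665/615 ratio normalized to no compound (0%) and untagged RAF1 (100%); IC50.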
In general terms: In TR-FRET formats the signal depends on donor and acceptor labels being close together.

T1 sequence (P01116 with tags, fused parts or gaps isoform P01116-2 G12D): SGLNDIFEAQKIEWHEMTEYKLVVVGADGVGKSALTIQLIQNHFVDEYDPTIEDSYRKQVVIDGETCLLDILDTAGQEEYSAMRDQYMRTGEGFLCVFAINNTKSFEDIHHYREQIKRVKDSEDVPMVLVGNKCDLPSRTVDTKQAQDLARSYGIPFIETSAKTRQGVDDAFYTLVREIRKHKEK

`CN(C)CC1(COc2nc(N3C[C@H]4CC[C@@H](C3)N4)c(C#N)c(N3CC4(CCc5sc(N)c(C#N)c54)C3)n2)CC1(F)F` (mixture of isomers) [Compound 74, 2-amino-1′-[5-cyano-6-(3,8-diazabicyclo[3.2.1]octan-3-yl)-2-[[1-[(dimethylamino)methyl]-2,2-difluoro-cyclopropyl]methoxy]pyrimidin-4-yl]spiro[5,6-dihydrocyclopenta[b]thiophene-4,3′-azetidine]-3-carbonitrile]: the IC50 (Table 4) was in the range of 10 to 100 µM. `C[C@@]1(O)CCCN(c2nc(OC[C@@]34CCCN3C[C@H](F)C4)nc(N3CC4(CCc5sc(N)c(C#N)c54)C3)c2C#N)C1` [Compound 27, 2-amino-1′-[5-cyano-2-[[(2R,8S)-2-fluoro-1,2,3,5,6,7-hexahydropyrrolizin-8-yl]methoxy]-6-[(3R)-3-hydroxy-3-methyl-1-piperidyl]pyrimidin-4-yl]spiro[5,6-dihydrocyclopenta[b]thiophene-4,3′-azetidine]-3-carbonitrile] gave an IC50 (Table 4) of 1 to 10 µM. The same measure, in the same setting: the result for `N#Cc1c(N2CCCC(O)CC2)nc(OC[C@@]23CCCN2C[C@H](F)C3)nc1N1CC2(CCc3sc(N)c(C#N)c32)C1` (stereo partly drawn) [Compound 40, 2-amino-1′-[5-cyano-6-(4-hydroxyazepan-1-yl)-2-[[(2R,8S)-2-fluoro-1,2,3,5,6,7-hexahydropyrrolizin-8-yl]methoxy]pyrimidin-4-yl]spiro[5,6-dihydrocyclopenta[b]thiophene-4,3′-azetidine]-3-carbonitrile] reads 1 to 10 µM; that for `N#Cc1c(N2CC3COCC(C2)N3)nc(OC[C@]23CCCN2C[C@@H](F)C3)nc1N1CC2(CCc3sc(N)c(C#N)c32)C1` [Compound 43, 2-amino-1′-[5-cyano-2-[[(2S,8R)-2-fluoro-1,2,3,5,6,7-hexahydropyrrolizin-8-yl]methoxy]-6-(3-oxa-7,9-diazabicyclo[3.3.1]nonan-7-yl)pyrimidin-4-yl]spiro[5,6-dihydrocyclopenta[b]thiophene-4,3′-azetidine]-3-carbonitrile], 1 to 10 µM; that for `N#Cc1c(N2CCCC(=O)CC2)nc(OC[C@@]23CCCN2C[C@H](F)C3)nc1N1CC2(CCc3sc(N)c(C#N)c32)C1` [Compound 49, 2-amino-1′-[5-cyano-2-[[(2R,8S)-2-fluoro-1,2,3,5,6,7-hexahydropyrrolizin-8-yl]methoxy]-6-(4-oxoazepan-1-yl)pyrimidin-4-yl]spiro[5,6-dihydrocyclopenta[b]thiophene-4,3′-azetidine]-3-carbonitrile], 10 to 100 µM.

On to `N#Cc1c(N2C[C@H]3CC[C@@H](C2)N3)nc(OCC2(CN3CC[S+]([O-])CC3)CC2)nc1N1CC2(CCc3sc(N)c(C#N)c32)C1` [Compound 71, 2-amino-1′-[5-cyano-6-[(1R,5S)-3,8-diazabicyclo[3.2.1]octan-3-yl]-2-[[1-[(1-oxo-1,4-thiazinan-4-yl)methyl]cyclopropyl]methoxy]pyrimidin-4-yl]spiro[5,6-dihydrocyclopenta[b]thiophene-4,3′-azetidine]-3-carbonitrile], for which the IC50 (Table 4) was 1 to 10 µM. Same read-out and setting: as for `N#Cc1c(N2C[C@H]3CC[C@@H](C2)N3)nc(OCC2(CN3CCOCC3)CC2)nc1N1CC2(CSc3sc(N)c(C#N)c32)C1` [Compound 73, 5-amino-1′-[5-cyano-2-[[1-(morpholinomethyl)cyclopropyl]methoxy]-6-[(1R,5S)-3,8-diazabicyclo[3.2.1]octan-3-yl]pyrimidin-4-yl]spiro[2H-thieno[2,3-b]thiophene-3,3′-azetidine]-4-carbonitrile], the figure is 0.1 to 1 µM. `CN(C)CC1(COc2nc(N3CC4CCC(C3)N4)c(C#N)c(N3CC4(CCc5sc(N)c(C#N)c54)C3)n2)CC1(F)F` (centres unmarked) [Compound 74B, 2-amino-1′-[5-cyano-6-(3,8-diazabicyclo[3.2.1]octan-3-yl)-2-[[(1*)-1-[(dimethylamino)methyl]-2,2-difluoro-cyclopropyl]methoxy]pyrimidin-4-yl]spiro[5,6-dihydrocyclopenta[b]thiophene-4,3′-azetidine]-3-carbonitrile] returned a half-maximal inhibitory concentration (IC50) (Table 4, listed as 74.2) of 10 to 100 µM. Consider `N#Cc1c(N2CCCn3nc(-c4ccccn4)c(Cl)c3C2)nc(OCC2(CN3CCOCC3)CC2)nc1N1CC2(CCc3sc(N)c(C#N)c32)C1` [Compound 75, 2-amino-1′-[6-[3-chloro-2-(2-pyridyl)-4,6,7,8-tetrahydropyrazolo[1,5-a][1,4]diazepin-5-yl]-5-cyano-2-[[1-(morpholinomethyl)cyclopropyl]methoxy]pyrimidin-4-yl]spiro[5,6-dihydrocyclopenta[b]thiophene-4,3′-azetidine]-3-carbonitrile], for which, under “Table 4”, the IC50 was in the range of 0.1 to 1 µM. `N#Cc1c(N2C[C@H]3CC[C@@H](C2)N3)nc(OCc2ccccc2)nc1N1CC2(CCc3sc(N)c(C#N)c32)C1` [Compound 76, 2-amino-1′-[2-benzyloxy-5-cyano-6-[(1R,5S)-3,8-diazabicyclo[3.2.1]octan-3-yl]pyrimidin-4-yl]spiro[5,6-dihydrocyclopenta[b]thiophene-4,3′-azetidine]-3-carbonitrile] gave an IC50 (Table 4) of 0.1 to 1 µM. For the molecule `N#Cc1c(N2C[C@H]3CC[C@@H](C2)N3)nc(OC[C@@H]2CCN2CC(F)(F)F)nc1N1CC2(CCc3sc(N)c(C#N)c32)C1` [Compound 92, 2-amino-1′-[5-cyano-6-[(1R,5S)-3,8-diazabicyclo[3.2.1]octan-3-yl]-2-[[(2S)-1-(2,2,2-trifluoroethyl)azetidin-2-yl]methoxy]pyrimidin-4-yl]spiro[5,6-dihydrocyclopenta[b]thiophene-4,3′-azetidine]-3-carbonitrile], the IC50 (Table 4) lay within 10 to 100 µM. Under “Table 4”, `C=C1CN2CCCC2(COc2nc(N3CCCn4nc(C(=O)N(C)C)c(Cl)c4C3)c(C#N)c(N3CC4(CCc5sc(N)c(C#N)c54)C3)n2)C1` (centres unmarked) [Compound 93, 5-[6-(2-amino-3-cyano-spiro[5,6-dihydrocyclopenta[b]thiophene-4,3′-azetidine]-1′-yl)-5-cyano-2-[(6-methylene-2,3,5,7-tetrahydro-1H-pyrrolizin-8-yl)methoxy]pyrimidin-4-yl]-3-chloro-N,N-dimethyl-4,6,7,8-tetrahydropyrazolo[1,5-a][1,4]diazepine-2-carboxamide] showed an IC50 of 0.1 to 1 µM. Still for that read-out and setting: the result for `C=C1CN2CCCC2(COc2nc(N3C[C@H]4CC[C@@H](C3)N4)c(C#N)c(N3CC4(CCc5sc(N)c(C#N)c54)C3)n2)C1` (stereo partly drawn) [Compound 94, 2-amino-1′-[5-cyano-2-[(6-methylene-2,3,5,7-tetrahydro-1H-pyrrolizin-8-yl)methoxy]-6-[(1R,5S)-3,8-diazabicyclo[3.2.1]octan-3-yl]pyrimidin-4-yl]spiro[5,6-dihydrocyclopenta[b]thiophene-4,3′-azetidine]-3-carbonitrile] reads less than 0.1 µM. Molecule `CN(C)CC1(COc2nc(N3CCCn4nc(C(=O)N(C)C)c(Cl)c4C3)c(C#N)c(N3CC4(CCCc5sc(N)c(C#N)c54)C3)n2)CC1(F)F` (centres unmarked) [Compound 96, 5-[6-(2-amino-3-cyano-spiro[6,7-dihydro-5H-benzothiophene-4,3′-azetidine]-1′-yl)-5-cyano-2-[[1-[(dimethylamino)methyl]-2,2-difluoro-cyclopropyl]methoxy]pyrimidin-4-yl]-3-chloro-N,N-dimethyl-4,6,7,8-tetrahydropyrazolo[1,5-a][1,4]diazepine-2-carboxamide] registered an IC50 (Table 4) of 1 to 10 µM. The same measure, in the same setting: as for `Cn1nccc1COc1nc(N2C[C@H]3CC[C@@H](C2)N3)c(C#N)c(N2CC3(CCc4sc(N)c(C#N)c43)C2)n1` [Compound 97, 2-amino-1′-[5-cyano-2-[(2-methylpyrazol-3-yl)methoxy]-6-[(1R,5S)-3,8-diazabicyclo[3.2.1]octan-3-yl]pyrimidin-4-yl]spiro[5,6-dihydrocyclopenta[b]thiophene-4,3′-azetidine]-3-carbonitrile], the figure is 10 to 100 µM. On the same count and under the same terms, the result for `N#Cc1c(N2C[C@H]3CC[C@@H](C2)N3)nc(OCC2(c3ccn[nH]3)CC2)nc1N1CC2(CCc3sc(N)c(C#N)c32)C1` [Compound 98, 2-amino-1′-[5-cyano-6-[(1R,5S)-3,8-diazabicyclo[3.2.1]octan-3-yl]-2-[[1-(1H-pyrazol-5-yl)cyclopropyl]methoxy]pyrimidin-4-yl]spiro[5,6-dihydrocyclopenta[b]thiophene-4,3′-azetidine]-3-carbonitrile] reads 1 to 10 µM. As for `N#Cc1c(N2C[C@H]3CC[C@@H](C2)N3)nc(OC[C@@]23CCCN2C[C@H](F)C3)nc1N1CC2(C1)c1c(sc(N)c1C#N)CC1CC12` (stereo partly drawn) [Compound 99, 2-amino-1′-[5-cyano-6-[(1R,5S)-3,8-diazabicyclo[3.2.1]octan-3-yl]-2-[[(2R,8S)-2-fluoro-1,2,3,5,6,7-hexahydropyrrolizin-8-yl]methoxy]pyrimidin-4-yl]spiro[4a,5,5a,6-tetrahydrocyclopropa[f]benzothiophene-4,3′-azetidine]-3-carbonitrile], where the note is “Table 4”, the IC50 was in the range of 0.1 to 1 µM. Still for that read-out and setting: as for `N#Cc1c(N2C[C@H]3CC[C@@H](C2)N3)nc(OCC2(CN3CCOCC3)CC2)nc1N1CC2(C1)SCc1sc(N)c(C#N)c12` [Compound 100, 2-amino-1′-[5-cyano-6-[(1R,5S)-3,8-diazabicyclo[3.2.1]octan-3-yl]-2-[[1-(morpholinomethyl)cyclopropyl]methoxy]pyrimidin-4-yl]spiro[6H-thieno[2,3-c]thiophene-4,3′-azetidine]-3-carbonitrile], the figure is less than 0.1 µM; as for `N#Cc1c(N2C[C@H]3CC[C@@H](C2)N3)nc(OCC2(CN3CCOCC3)CC2)nc1N1CC2(C1)c1c(sc(N)c1C#N)CC2F` (stereo partly drawn) [Compound 101, 2-amino-1′-[5-cyano-6-[(1R,5S)-3,8-diazabicyclo[3.2.1]octan-3-yl]-2-[[1-(morpholinomethyl)cyclopropyl]methoxy]pyrimidin-4-yl]-5-fluoro-spiro[5,6-dihydrocyclopenta[b]thiophene-4,3′-azetidine]-3-carbonitrile], 0.1 to 1 µM. In the case of `Cc1n[nH]nc1COc1nc(N2C[C@H]3CC[C@@H](C2)N3)c(C#N)c(N2CC3(CCc4sc(N)c(C#N)c43)C2)n1` [Compound 108], the IC50 (Table 4) lay within 10 to 100 µM.

One may read the IC50 as the concentration at which inhibition is half-maximal. Low readings indicate greater potency, high ones weaker potency.

The values above are taken from patent publication US12145947B2, “Pyrimidine based modulators and uses thereof” (Quanta Therapeutics, Inc., priority 2022, dated 2024).
